Earlier results as cited in patent US7273889B2, “NMDA receptor antagonist formulation with reduced neurotoxicity” (Innovative Drug Delivery Systems, Inc., priority 2002, dated 2007).
Counter-ions that a name gives are not always drawn.

Assays:
patients = details: use as an anesthetic agent
[1] = system: spinal cord of the animals; details: multiple dose, intrathecally administered
[2] = at a pH up to 10

CNC1(c2ccccc2Cl)CCCCC1=O (stereo not drawn) [ketamine hydrochloride]
occurrence of postoperative confusional states (emergence reactions) (patients): approximately 12% of patients

CNC1(c2ccccc2Cl)CCCCC1=O (stereo not drawn) [preservative-free ketamine, ketamine]
neurotoxic effect [1]: without neurotoxic effect

benzalkonium chloride
stability [2]: stable at room temperature
